Measurements taken from publication PMC5895059, “Scaffold hopping from (5-hydroxymethyl) isophthalates to multisubstituted pyrimidines diminishes binding affinity to the C1 domain of protein kinase C” (PLoS ONE, 2018).
“And” between values parts separate entries of the source, which are not always exact repeats. Equal values may be shown once.

Experiments:
PKCα [1] = molecular target: T1, PKCα (Homo sapiens, UniProt P17252); conditions: read-out: Ki PKCα; cited from earlier work
PKCα [2] = molecular target: T1, PKCα; assay: [3H]PDBu displacement, 96-well plate filtration binding assay; conditions: for Displacement assay raw data (CCPM): single replicate wells; for Residual [^3H]PDBu binding to PKCα (% of control): 20 μM compound concentration, mean + SEM, n = 2–8
PKCα and -δ = molecular target: PKCα and -δ; parameters: method as in PMID 19438240; conditions: for PKCα and -δ; cited from earlier work

Q: With `CCCCCCCCCCc1ccc2c(c1)N[C@@H](C(C)C)C(=O)N[C@H](CO)C2` [9-Decyl-benzolactam-V8, 9-decyl-benzolactam-V8] as the compound, how does the Ki (PKCα [1]) read?
A: 3.8 nM

Q: Which results are given for `CCCCC(CC)Oc1nc(CO)nc(C(=O)OC)c1C` (centres unmarked) [Compound 2k, Methyl 6-(heptan-3-yloxy)-2-(hydroxymethyl)-5-methylpyrimidine-4-carboxylate]?
A: Displacement assay raw data (CCPM) (PKCα [2]; 0,2 µM test substance): 13386 CCPM and 11844 CCPM and 11381 CCPM and 5560 CCPM and 5090 CCPM and 5580 CCPM; Displacement assay raw data (CCPM) (PKCα [2]; 1 µM test substance): 12313 CCPM and 12292 CCPM and 11097 CCPM and 5334 CCPM and 5340 CCPM and 5211 CCPM; Displacement assay raw data (CCPM) (PKCα [2]; 4 µM test substance): 12488 CCPM and 11770 CCPM and 11977 CCPM and 5381 CCPM and 5013 CCPM and 5436 CCPM; Displacement assay raw data (CCPM) (PKCα [2]; 10 µM test substance): 12602 CCPM and 12313 CCPM and 12064 CCPM and 5438 CCPM and 4595 CCPM and 5996 CCPM; Residual [^3H]PDBu binding to PKCα (% of control) (PKCα [2]): 110.7 ± 5.5 % of control; Displacement assay raw data (CCPM) (PKCα [2]; 20 µM test substance): 12386 CCPM and 11227 CCPM and 11279 CCPM and 6057 CCPM and 6588 CCPM and 6792 CCPM; Displacement assay raw data (CCPM) (PKCα [2]; 30 µM test substance): 11742 CCPM and 11565 CCPM and 11279 CCPM and 5575 CCPM and 6135 CCPM and 5991 CCPM

Q: For `CCCCC(CC)Oc1nc(CO)nc(C(=O)OCc2cccc(C(F)(F)F)c2)c1C` (centres unmarked) [Compound 2l, 3-(trifluoromethyl)benzyl 6-(heptan-3-yloxy)-2-(hydroxymethyl)-5-methylpyrimidine-4-carboxylate], which “Displacement assay raw data (CCPM)” value (PKCα [2]; 0,2 µM test substance) is on record?
A: 11787 CCPM and 12303 CCPM and 12556 CCPM and 11461 CCPM and 11853 CCPM and 10747 CCPM

Q: And the “Displacement assay raw data (CCPM)” value (PKCα [2]; 1 µM test substance)?
A: 11810 CCPM and 12833 CCPM and 12739 CCPM and 9497 CCPM and 9690 CCPM and 11213 CCPM

Q: What about the “Displacement assay raw data (CCPM)” value (PKCα [2]; 4 µM test substance) of the same compound?
A: 12017 CCPM and 12127 CCPM and 12580 CCPM and 10346 CCPM and 11241 CCPM and 10654 CCPM

Q: And the “Displacement assay raw data (CCPM)” value (PKCα [2]; 10 µM test substance)?
A: 10371 CCPM and 11662 CCPM and 12071 CCPM and 9995 CCPM and 8831 CCPM and 10464 CCPM

Q: And the “Residual [^3H]PDBu binding to PKCα (% of control)” value (PKCα [2])?
A: 87.2 ± 3.1 % of control

Q: What about the “Displacement assay raw data (CCPM)” value (PKCα [2]; 20 µM test substance) of the same compound?
A: 9853 CCPM and 10455 CCPM and 11136 CCPM and 9012 CCPM and 9579 CCPM and 9472 CCPM

Q: What about the “Displacement assay raw data (CCPM)” value (PKCα [2]; 30 µM test substance) of the same compound?
A: 9538 CCPM and 8697 CCPM and 9196 CCPM and 7998 CCPM and 9967 CCPM and 8566 CCPM

Q: What about the “Displacement of [^3H]PDBu from PKCα (in words)” value (PKCα [2]; concentration range of 0.2–30 μM) of the same compound?
A: strongest concentration dependence

Q: For `O=C(OCc1cccc(C(F)(F)F)c1)c1cc(CO)cc(C(=O)OCc2cccc(C(F)(F)F)c2)c1` [HMI-1a3, reference compound], which “Residual [^3H]PDBu binding to PKCα (% of control)” value (PKCα [2]) is on record?
A: 54.8 ± 2.6 % of control

Q: Which Ki (PKCα and -δ) does the source give for `CCCCC(CC)OC(=O)c1cc(CO)cc(C(=O)OC(CC)CCCC)c1` (centres unmarked) [HMI-1b11] here?
A: 205 to 915 nM

Q: With `CC(C)C1C(=O)NC(CO)Cc2c[nH]c3cccc(c23)N1C` (centres unmarked) [Indolactam-V, indolactam-V] as the compound, how does the Ki (PKCα [1]) read?
A: 11 nM

Q: With `C/C=C(/C)C(=O)O[C@H]1C(C)=C[C@]23C(=O)[C@H](C=C(CO)[C@@H](O)[C@]12O)[C@H]1[C@@H](C[C@H]3C)C1(C)C` [Ingenol 3-angelate, ingenol 3-angelate] as the compound, how does the Ki (PKCα [1]) read?
A: 0.1 nM

Q: Which Ki (PKCα [1]) does the source give for `CC1=CC[C@H](C)C(C)(C)[C@@H]1/C=C/C(C)=C/CC[C@@]1(CO)[C@H](CCCO)/C(=C(/C)C=O)CC[C@]1(C)O` [Iripallidal, iripallidal] here?
A: 75.6 nM

Q: For `C=C(C)[C@@]12O[C@@]3(c4ccccc4)O[C@@H]1[C@@H]1[C@@H]4O[C@]4(CO)[C@@H](O)[C@]4(O)C(=O)C(C)=C[C@H]4[C@@]1(O3)[C@H](C)[C@H]2OC(=O)/C=C/C=C/c1ccccc1` [Mezerein, mezerein], which Ki (PKCα [1]) is on record?
A: 0.27 nM

Q: With `CCCCCCCCCCCCCC(=O)O[C@@H]1[C@@H](C)[C@@]2(O)[C@@H](C=C(CO)C[C@]3(O)C(=O)C(C)=C[C@@H]23)[C@@H]2C(C)(C)[C@]12OC(C)=O` [Phorbol 12-myristate-13-acetate, reference compound] as the compound, how does the “Displacement assay raw data (CCPM)” value (PKCα [2]; 1 nM test substance, listed as PMA) read?
A: 1177 CCPM and 1302 CCPM and 1254 CCPM and 242 CCPM and 282 CCPM and 239 CCPM and 330 CCPM and 372 CCPM and 364 CCPM

Q: What about the “Displacement assay raw data (CCPM)” value (PKCα [2]; 10 nM test substance, listed as PMA) of the same compound?
A: 406 CCPM and 456 CCPM and 410 CCPM and 123 CCPM and 132 CCPM and 186 CCPM and 230 CCPM and 206 CCPM

Q: And the “Displacement assay raw data (CCPM)” value (PKCα [2]; 100 nM test substance, listed as PMA)?
A: 341 CCPM and 382 CCPM and 361 CCPM and 56 CCPM and 49 CCPM and 43 CCPM and 48 CCPM and 57 CCPM and 40 CCPM

Q: With `CC(=O)O[C@@]12[C@H](O)[C@@H](C)[C@@]3(O)[C@@H](C=C(CO)C[C@]4(O)C(=O)C(C)=C[C@@H]34)[C@@H]1C2(C)C` [Phorbol 13-acetate, phorbol 13-acetate] as the compound, how does the Ki (PKCα [1]) read?
A: 120000 nM
